Test results as given in paper PMC10823514, “Target Identification of a Class of Pyrazolone Protein Aggregation Inhibitor Therapeutics for Amyotrophic Lateral Sclerosis” (ACS Central Science, 2023).

Key:
[1] = target: T1, 25 kDa protein band in PC12 SOD1^G93A cells (Rattus norvegicus, UniProt P62260); assay: Live-cell photoaffinity labeling: concentration-dependent covalent modification of the 25 kDa band by PRAPP (in-gel fluorescence, Hill fit); format: binding; conditions: all three treatment scenarios
T1 construct: we identified a 25 kDa covalently modified protein band in the PC12 SOD1^G93A cell line; endogenous in cells; host or cells: PC12-SOD1^G93A cells (live-cell UV photolabeling, then lysis)
T1 sequence (P62260 1-255): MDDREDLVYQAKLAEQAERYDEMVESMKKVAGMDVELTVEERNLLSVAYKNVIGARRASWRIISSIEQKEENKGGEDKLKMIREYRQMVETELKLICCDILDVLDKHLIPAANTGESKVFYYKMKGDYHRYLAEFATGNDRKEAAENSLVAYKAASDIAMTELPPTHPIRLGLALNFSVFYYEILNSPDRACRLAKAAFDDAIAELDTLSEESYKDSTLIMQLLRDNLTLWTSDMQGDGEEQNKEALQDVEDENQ
Experimental: PC12-SOD1^G93A cells were cultured and grown to 90% confluency (in 6-well plates) and washed once with PBS followed by the addition of serum medium containing the appropriate analyte at the indicated concentrations. Three incubation scenarios were studied (at 37 °C): Scenario 1) 12 h preincubation with PRAPP in the absence of MG-132; Scenario 2) 12 h preincubation with PRAPP in the absence of MG-132 followed by an additional 24 h incubation (control); and Scenario 3) 12 h preincubation with PRAPP followed by the addition of MG-132 (100 nM) and an additional 24 h incubation. After incubation, the medium was discarded and cells were washed with PBS (1 × 300 μL). […] Each lysate was centrifuged at 4 °C for 5 min at 13,000 rpm, and the resulting supernatant was concentrated with a centrifugal filter (Amicon Ultra Centrifugal Filters 3K cutoff, Millipore), normalized to 1.0 mg/mL by the Bradford assay, and analyzed immediately or stored at −80 °C for subsequent analysis.
In a darkened (wrapped with aluminum foil) Eppendorf tube, each lysate (30 μL [30 μg]) was incubated with 10 μL of the freshly prepared “click” premix containing CuSO4 (5 mM), sodium ascorbate (5 mM), TBTA (200 μM), and N3–Alexa-647 (50 μM) were added to PBS (50 mM, pH 7.4). […] In-gel fluorescence was monitored (excitation λ = 635 nm; emission λ = 670 nm) using a Typhoon 9400 (GE Healthcare) fluorimager. […]

14-3-3-H = target: T2, 14-3-3-H (Homo sapiens, UniProt Q04917); assay: Fluorescent thermal shift assay (FTSA) with 14-3-3-H; format: binding
T2 construct: His-tag (TEV-cleavable) (cleaved yes); host or cells: E. coli (BL21)
T2 sequence (Q04917 1-246): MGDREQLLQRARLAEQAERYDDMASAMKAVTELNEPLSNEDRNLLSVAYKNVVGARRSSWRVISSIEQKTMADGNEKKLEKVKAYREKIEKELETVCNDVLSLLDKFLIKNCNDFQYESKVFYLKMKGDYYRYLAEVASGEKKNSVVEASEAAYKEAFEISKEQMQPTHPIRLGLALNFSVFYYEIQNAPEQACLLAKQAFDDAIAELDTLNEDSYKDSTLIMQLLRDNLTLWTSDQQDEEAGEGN
Experimental: His-tagged 14-3-3-E, B, and H plasmids were purchased from Addgene (plasmid ID# 31562, 39128, and 38814, respectively). E. coli (BL21) were transformed with extracted plasmids via heat shock and plated on selected media. Individual colonies were selected, grown, and sequenced to confirm gene presence. 1 L cultures were grown to an OD600 of 0.6 at 37 °C and 220 rpm. Protein expression was induced with 1 mM IPTG and expressed for 12 h at 100 rpm and room temperature (approximately 25 °C). Cells were spun down at 4000 rpm for 15 min at 4 °C and resuspended in lysis buffer containing 50 mM Tris (7.4), 150 mM NaCl, 0.08% DDM, 5 mM imidazole, and 5% glycerol (with an EDTA-free complete mini protease inhibitor cocktail). Cells were lysed via sonication, and the lysate was separated from cell debris by centrifugation at 15,000 rpm, 4 °C, for 45 min. The His-tagged protein was purified using QIAGEN Ni-NTA superflow columns, and the His-tag was removed with TEV protease. His-tag-removed proteins were further purified by size exclusion chromatography. His tag removal and size exclusion chromatography purification were done at the Northwestern University Protein Production core. […]
All of the FTSA experiments were conducted in HEPES buffer (60 mM HEPES, 150 mM NaCl, pH 7.4). […] The fluorescence was measured on a Bio-Rad CFX384 real-time PCR instrument.

Row | SMILES | concentration of saturation binding kinetics [1] | binding (Tm shift) (14-3-3-H)
1 | C#CCN(Cc1cc(=O)[nH][nH]1)Cc1c(F)c(F)c(N=[N+]=[N-])c(F)c1F [PRAPP, 5-(((4-Azido-2,3,5,6-tetrafluorobenzyl)(prop-2-yn-1-yl)amino)methyl)-1,2-dihydro-3H-pyrazol-3-one] | around 30 μM | 
2 | O=c1cc(COc2cc(Cl)cc(Cl)c2)[nH][nH]1 [P2] |  | no binding
